In article PMC7531004, “Discovery of gramicidin A analogues with altered activities by multidimensional screening of a one-bead-one-compound library” (Nature Communications, 2020):
Where a SMILES comes first, the peptide text is derived from it. [ ]: non-standard residue; d: D form. The star is where a group is joined. NHCH2CH2OH = OCCN*; For = O=C*

How the values were obtained:
[1] = cell viability/%
How it was run: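 P388 cells at 1 × 10^4 cells/mL (final) were exposed to library peptides (stocks diluted 250-fold in RPMI1640/10% FBS) for 92 h at 37 °C, 5% CO2. Viable cells were counted by WST-1/1-methoxy PMS (4 h), absorbance 415 nm, and expressed as cell viability (%).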

[2] = H+/Na+ transport assay of bead-derived peptides (one-point); format: biochemical; parameters: key: relative activity; mean of two control wells = 1.00; conditions: bead-derived peptide solution, EYPC/EYPG LUVs;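 note: relative to parent gramicidin A activity set to 1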
How it was run: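 Values are normalized fluorescence, with Triton X-100 defining 100% and untreated LUVs 0%, and the two control wells averaging 1.00. Vesicles carried 1.0 mM pyranine and included egg yolk phosphatidylglycerol. Peptides were incubated with them 30 min at room temperature.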

[3] = test system: Streptococcus pyogenes SSI-9; test: Antibacterial activity assay of bead-derived peptides (three concentrations); format: cell-based; parameters: key: +++: inhibition by the 640-fold diluted peptide solution; ++: inhibition by the 160-fold diluted solution; +: inhibition by the 40-fold diluted solution; -: no inhibition; conditions: S. pyogenes, bead-derived peptide solution, three concentrations
How it was run: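 Library peptide stock applied undiluted, 4-fold and 16-fold diluted in DMSO to S. pyogenes SSI-9 (2 × 10^5 CFU) in cation-adjusted Mueller Hinton broth with 5% laked horse blood. After 18 h at 37 °C, growth judged by visible cell precipitation.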

Row | Structure (SMILES) | viability [1] [%] | H+/Na+ transport activity normalized against the value of 1 (1.00) [2] | antibacterial activity [3]
1 | CC(C)C[C@@H](NC(=O)[C@H](C)NC(=O)CNC(=O)[C@@H](NC=O)C(C)C)C(=O)N[C@@H](C)C(=O)N[C@H](CC(C)C)C(=O)N[C@H](C(=O)N[C@H](CC(C)C)C(=O)N[C@@H](Cc1c[nH]c2ccccc12)C(=O)N[C@H](CC(C)C)C(=O)N[C@@H](Cc1c[nH]c2ccccc12)C(=O)N[C@H](CC(C)C)C(=O)N[C@@H](Cc1c[nH]c2ccccc12)C(=O)N[C@H](CC(C)C)C(=O)N[C@@H](Cc1c[nH]c2ccccc12)C(=O)NCCO)C(C)C [compound 2904] (For-VGA[dL]A[dL]V[dL]W[dL]W[dL]W[dL]W-NHCH2CH2OH) | 12.5 | 1.09 | -
2 | CC(C)C[C@@H](NC(=O)[C@H](C)NC(=O)[C@H](NC(=O)[C@H](C)NC(=O)CNC(=O)[C@@H](NC=O)C(C)C)C(C)C)C(=O)N[C@H](C(=O)N[C@@H](C(=O)N[C@@H](Cc1c[nH]c2ccccc12)C(=O)N[C@@H](C(=O)N[C@@H](Cc1c[nH]c2ccccc12)C(=O)N[C@H](CC(C)C)C(=O)N[C@@H](Cc1c[nH]c2ccccc12)C(=O)N[C@@H](C(=O)N[C@@H](Cc1c[nH]c2ccccc12)C(=O)NCCO)C(C)C)C(C)C)[C@H](C)O)C(C)C [compound 3206] (For-VGA[dV]A[dL]V[dT]W[dV]W[dL]W[dV]W-NHCH2CH2OH) | 97.4 | 1.19 | -
3 | CC(C)C[C@@H](NC(=O)[C@H](C)NC(=O)CNC(=O)[C@@H](NC=O)C(C)C)C(=O)N[C@@H](C)C(=O)N[C@H](CC(C)C)C(=O)N[C@H](C(=O)N[C@@H](C(=O)N[C@@H](Cc1c[nH]c2ccccc12)C(=O)N[C@@H](C(=O)N[C@@H](Cc1c[nH]c2ccccc12)C(=O)N[C@H](CC(C)C)C(=O)N[C@@H](Cc1c[nH]c2ccccc12)C(=O)N[C@@H](C(=O)N[C@@H](Cc1c[nH]c2ccccc12)C(=O)NCCO)[C@H](C)O)C(C)C)C(C)C)C(C)C [compound 9823] (For-VGA[dL]A[dL]V[dV]W[dV]W[dL]W[dT]W-NHCH2CH2OH) | 100 | 1.08 | -
4 | CC(C)C[C@@H](NC(=O)[C@H](C)NC(=O)[C@H](NC(=O)[C@H](C)NC(=O)CNC(=O)[C@@H](NC=O)C(C)C)[C@H](C)O)C(=O)N[C@H](C(=O)N[C@H](CC(C)C)C(=O)N[C@@H](Cc1c[nH]c2ccccc12)C(=O)N[C@@H](C(=O)N[C@@H](Cc1c[nH]c2ccccc12)C(=O)N[C@H](CC(C)C)C(=O)N[C@@H](Cc1c[nH]c2ccccc12)C(=O)N[C@H](CC(C)C)C(=O)N[C@@H](Cc1c[nH]c2ccccc12)C(=O)NCCO)C(C)C)C(C)C [compound 4687] (For-VGA[dT]A[dL]V[dL]W[dV]W[dL]W[dL]W-NHCH2CH2OH) | 94.4 | 1.04 | -
5 | CC(C)C[C@@H](NC(=O)[C@H](C)NC(=O)CNC(=O)[C@@H](NC=O)C(C)C)C(=O)N[C@@H](C)C(=O)N[C@H](CC(C)C)C(=O)N[C@H](C(=O)N[C@H](CC(C)C)C(=O)N[C@@H](Cc1c[nH]c2ccccc12)C(=O)N[C@H](CC(C)C)C(=O)N[C@@H](Cc1c[nH]c2ccccc12)C(=O)N[C@@H](C(=O)N[C@@H](Cc1c[nH]c2ccccc12)C(=O)N[C@H](CC(C)C)C(=O)N[C@@H](Cc1c[nH]c2ccccc12)C(=O)NCCO)[C@H](C)O)C(C)C [compound 1888] (For-VGA[dL]A[dL]V[dL]W[dL]W[dT]W[dL]W-NHCH2CH2OH) | 100 | 1.16 | -
6 | CC(C)C[C@@H](NC(=O)[C@H](C)NC(=O)CNC(=O)[C@@H](NC=O)C(C)C)C(=O)N[C@@H](C)C(=O)N[C@H](CC(C)C)C(=O)N[C@H](C(=O)N[C@H](CC(C)C)C(=O)N[C@@H](Cc1c[nH]c2ccccc12)C(=O)N[C@@H](C(=O)N[C@@H](Cc1c[nH]c2ccccc12)C(=O)N[C@@H](C(=O)N[C@@H](Cc1c[nH]c2ccccc12)C(=O)N[C@H](CC(C)C)C(=O)N[C@@H](Cc1c[nH]c2ccccc12)C(=O)NCCO)[C@H](C)O)C(C)C)C(C)C [compound 5736] (For-VGA[dL]A[dL]V[dL]W[dV]W[dT]W[dL]W-NHCH2CH2OH) | 95.5 | 1.11 | -
7 | CC(C)C[C@@H](NC(=O)[C@H](Cc1c[nH]c2ccccc12)NC(=O)[C@H](NC(=O)[C@@H](NC(=O)[C@H](NC(=O)[C@H](C)NC(=O)[C@H](NC(=O)[C@H](C)NC(=O)CNC(=O)[C@@H](NC=O)C(C)C)C(C)C)C(C)C)C(C)C)C(C)C)C(=O)N[C@@H](Cc1c[nH]c2ccccc12)C(=O)N[C@H](CC(C)C)C(=O)N[C@@H](Cc1c[nH]c2ccccc12)C(=O)N[C@@H](C(=O)N[C@@H](Cc1c[nH]c2ccccc12)C(=O)NCCO)[C@H](C)O [compound 4603] (For-VGA[dV]A[dV]V[dV]W[dL]W[dL]W[dT]W-NHCH2CH2OH) | 100 | 1.12 | ++
8 | CC(C)C[C@@H](NC(=O)[C@H](C)NC(=O)[C@H](NC(=O)[C@H](C)NC(=O)CNC(=O)[C@@H](NC=O)C(C)C)C(C)C)C(=O)N[C@H](C(=O)N[C@@H](C(=O)N[C@@H](Cc1c[nH]c2ccccc12)C(=O)N[C@@H](C(=O)N[C@@H](Cc1c[nH]c2ccccc12)C(=O)N[C@@H](C(=O)N[C@@H](Cc1c[nH]c2ccccc12)C(=O)N[C@H](CC(C)C)C(=O)N[C@@H](Cc1c[nH]c2ccccc12)C(=O)NCCO)C(C)C)C(C)C)C(C)C)C(C)C [compound 437] (For-VGA[dV]A[dL]V[dV]W[dV]W[dV]W[dL]W-NHCH2CH2OH) | 100 | 1.11 | +
9 | CC(C)C[C@@H](NC(=O)[C@H](C)NC(=O)CNC(=O)[C@@H](NC=O)C(C)C)C(=O)N[C@@H](C)C(=O)N[C@H](CC(C)C)C(=O)N[C@H](C(=O)N[C@@H](C(=O)N[C@@H](Cc1c[nH]c2ccccc12)C(=O)N[C@@H](C(=O)N[C@@H](Cc1c[nH]c2ccccc12)C(=O)N[C@@H](C(=O)N[C@@H](Cc1c[nH]c2ccccc12)C(=O)N[C@H](CC(C)C)C(=O)N[C@@H](Cc1c[nH]c2ccccc12)C(=O)NCCO)C(C)C)C(C)C)[C@H](C)O)C(C)C [compound 4784] (For-VGA[dL]A[dL]V[dT]W[dV]W[dV]W[dL]W-NHCH2CH2OH) | 100 | 1.19 | -
10 | CC(C)C[C@@H](NC(=O)[C@H](C)NC(=O)CNC(=O)[C@@H](NC=O)C(C)C)C(=O)N[C@@H](C)C(=O)N[C@@H](C(=O)N[C@H](C(=O)N[C@H](CC(C)C)C(=O)N[C@@H](Cc1c[nH]c2ccccc12)C(=O)N[C@H](CC(C)C)C(=O)N[C@@H](Cc1c[nH]c2ccccc12)C(=O)N[C@@H](C(=O)N[C@@H](Cc1c[nH]c2ccccc12)C(=O)N[C@H](CC(C)C)C(=O)N[C@@H](Cc1c[nH]c2ccccc12)C(=O)NCCO)C(C)C)C(C)C)[C@H](C)O [compound 3247] (For-VGA[dL]A[dT]V[dL]W[dL]W[dV]W[dL]W-NHCH2CH2OH) | 99.5 | 1.24 | -
11 | CC(C)C[C@@H](NC(=O)[C@H](Cc1c[nH]c2ccccc12)NC(=O)[C@H](NC(=O)[C@@H](NC(=O)[C@H](NC(=O)[C@H](C)NC(=O)[C@H](NC(=O)[C@H](C)NC(=O)CNC(=O)[C@@H](NC=O)C(C)C)[C@H](C)O)C(C)C)C(C)C)C(C)C)C(=O)N[C@@H](Cc1c[nH]c2ccccc12)C(=O)N[C@@H](C(=O)N[C@@H](Cc1c[nH]c2ccccc12)C(=O)N[C@@H](C(=O)N[C@@H](Cc1c[nH]c2ccccc12)C(=O)NCCO)C(C)C)C(C)C [compound 629] (For-VGA[dT]A[dV]V[dV]W[dL]W[dV]W[dV]W-NHCH2CH2OH) | 100 | 1.12 | -
12 | CC(C)C[C@@H](NC(=O)[C@H](C)NC(=O)[C@H](NC(=O)[C@H](C)NC(=O)CNC(=O)[C@@H](NC=O)C(C)C)C(C)C)C(=O)N[C@H](C(=O)N[C@H](CC(C)C)C(=O)N[C@@H](Cc1c[nH]c2ccccc12)C(=O)N[C@H](CC(C)C)C(=O)N[C@@H](Cc1c[nH]c2ccccc12)C(=O)N[C@@H](C(=O)N[C@@H](Cc1c[nH]c2ccccc12)C(=O)N[C@@H](C(=O)N[C@@H](Cc1c[nH]c2ccccc12)C(=O)NCCO)C(C)C)[C@H](C)O)C(C)C [compound 2117] (For-VGA[dV]A[dL]V[dL]W[dL]W[dT]W[dV]W-NHCH2CH2OH) | 100 | 1.15 | +
13 | CNC(=O)C[C@@H](NC(=O)[C@@H](NC(=O)[C@@H](CC(C)C)NC(=O)[C@H](C)NC(=O)[C@H](NC(=O)[C@H](C)NC(=O)CNC(=O)[C@@H](NC=O)C(C)C)C(C)C)C(C)C)C(=O)N[C@@H](Cc1c[nH]c2ccccc12)C(=O)N[C@@H](C(=O)N[C@@H](Cc1c[nH]c2ccccc12)C(=O)N[C@@H](C(=O)N[C@@H](Cc1c[nH]c2ccccc12)C(=O)N[C@H](CC(C)C)C(=O)N[C@@H](Cc1c[nH]c2ccccc12)C(=O)NCCO)C(C)C)C(C)C [compound 5991] (For-VGA[dV]A[dL]V[dD](NHMe)W[dV]W[dV]W[dL]W-NHCH2CH2OH) | 94.7 | 1.00 | -
